One assay has as its system P. aeruginosa PAK1-3. The assay is described as follows: Antibiotic resistance of spontaneous neomycin-resistant mutant PAK1-3 compared with parent PAK. The settings on record: mutant PAK1-3 versus parent strain PAK. Type of assay: cell-based, Pseudomonas aeruginosa. As for the experimental part: A mutant P. aeruginosa (PAK) strain was used to identify the pprA membrane permeability-associated gene. Spontaneous neomycin resistant mutants of PAK were selected by culturing on L-agar medium containing 200 μg/ml neomycin.

The test system of assay [1] is clinical isolates of P. aeruginosa. The assay can be described thus: Antibiotic sensitivity of CF and non-CF blood clinical isolates. Type of assay: cell-based, Pseudomonas aeruginosa. The settings on record: 18 CF and 18 non-CF blood isolates; tetracycline 100 μg/ml. As for the experimental part:
Overexpression of the pprB gene in clinical isolates increases sensitivity to aminoglycosides. The pprB overexpresser construct was introduced into aminoglycoside-resistant clinical isolates of P. aeruginosa. 18 cystic fibrosis (CF) isolates and 18 non-CF blood isolates showing varying degrees of resistance to all aminoglycosides were randomly chosen for analysis. Since most of the strains were also resistant to carbenicillin, but sensitive to tetracycline (100 μg/ml), a tetracycline-resistant construct, pRRBTc, that expresses the pprB gene under lac promoter was used.

A further assay has as its system PAK1-3 cells. The assay can be described thus: Complementation of PAK1-3: aminoglycoside sensitivity after introduction of plasmids. It counts as cell-based, Pseudomonas aeruginosa. The settings on record: PprB overexpression compared with PprA overexpression. From the text: A gene associated with membrane permeability, termed pprA, was identified by complementation assay in PAK1-3 cells. On the assumption that the PAK1-3 strain is an impermeable mutant due to loss of a gene function, an effort was made to complement the mutant with wild type PAK chromosomal DNA clones. A clone bank of 3-5 kb PAK chromosomal DNA was constructed in pUCP18, a broad host range plasmid with a lac promoter and β-lactamase. Plasmids with DNA inserts were gel purified from the clone bank and electroporated into PAK1-3.
Transformants were first selected on L-agar containing carbenicillin (150 μg/ml) and then replica plated on L-agar containing carbenicillin (150 μg/ml) plus neomycin (200 μg/ml) to screen for isolates that are sensitive to aminoglycosides. […] Plasmids were purified from the three isolates and re-transformed into fresh PAK1-3 cells. […] This plasmid was designated pUCP18B.
The pprB gene was amplified from the PAK chromosome by PCR and cloned into pUCP19, inserted in the same or opposite direction relative to the lac promoter on the vector. The resulting constructs were designated pZLRR-α and pZLRR-β, respectively. See, Wang et al., 2003, Antimicrobial Agents and Chemotherapy 47:95-101. The PCR product was cloned into pCR2.1-TOPO, resulting pCR-RR in which the pprB gene is in the opposite direction relative to the lac promoter. […]

For assay [2], the target named is T1, PprA / PprB (Pseudomonas aeruginosa, UniProt Q9HWA7).
T1 construct: coding regions of the two open reading frames were amplified by PCR; His-tag; made in house; host or cells: E. coli strain M15 (pREP4) with pYW021 (pQE32-pprA) or pYW024 (pQE31-pprB)
T1 sequence (Q9HWA7 1-922): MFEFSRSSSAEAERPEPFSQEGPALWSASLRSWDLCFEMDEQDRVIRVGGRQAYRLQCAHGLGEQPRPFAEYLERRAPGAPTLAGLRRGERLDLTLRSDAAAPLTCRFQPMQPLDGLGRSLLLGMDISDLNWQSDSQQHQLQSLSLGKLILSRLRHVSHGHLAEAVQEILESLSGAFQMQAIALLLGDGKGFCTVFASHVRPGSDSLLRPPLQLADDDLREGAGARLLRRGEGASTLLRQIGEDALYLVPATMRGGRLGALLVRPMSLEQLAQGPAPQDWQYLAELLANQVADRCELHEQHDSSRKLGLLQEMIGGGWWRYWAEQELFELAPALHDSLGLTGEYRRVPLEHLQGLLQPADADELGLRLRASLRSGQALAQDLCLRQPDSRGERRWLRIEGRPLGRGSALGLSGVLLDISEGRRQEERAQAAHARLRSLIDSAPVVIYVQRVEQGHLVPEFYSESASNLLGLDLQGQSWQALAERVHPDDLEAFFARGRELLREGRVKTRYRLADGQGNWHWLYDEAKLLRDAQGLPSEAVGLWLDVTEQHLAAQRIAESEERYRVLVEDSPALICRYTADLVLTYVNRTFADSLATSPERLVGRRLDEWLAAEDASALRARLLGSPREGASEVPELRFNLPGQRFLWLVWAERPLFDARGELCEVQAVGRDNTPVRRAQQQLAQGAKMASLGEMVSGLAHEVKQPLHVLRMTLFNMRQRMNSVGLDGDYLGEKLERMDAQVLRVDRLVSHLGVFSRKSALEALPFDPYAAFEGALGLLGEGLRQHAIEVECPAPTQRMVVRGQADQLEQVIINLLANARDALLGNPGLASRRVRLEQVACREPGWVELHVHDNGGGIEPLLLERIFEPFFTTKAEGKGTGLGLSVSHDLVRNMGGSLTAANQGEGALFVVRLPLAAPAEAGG
The assay can be described thus: In vitro phosphorylation assay with [γ-32P] ATP. Type of assay: biochemical. The settings on record: 5 min at room temperature, SDS-PAGE, X-ray film. The source says:
(§1) PprA or PprB were purified and expressed at high levels in E. coli. To produce PprA or PprB in E.coli, coding regions of the two open reading frames were amplified by PCR as described in Wang et al., supra. The PCR products were first cloned into pCR2.1-TOPO, designated pYW017 and pYW020, respectively. Subsequently, a 2.8 kb pprA fragment from pYW017 and an 862 bp pprB fragment from pYW020 were isolated and subcloned into the BamHI and HindIII sites of pQE32 and pQE31, resulting in pYW021 and pYW024, respectively.
(§2) To purify the His-tagged PprA or PprB, E.coli strain M15 harboring pREP4 and pYW021 or pYW024 were induced with 1 mM IPTG for six hours at 28° C. His-tagged PprA and PprB were affinity purified using Ni-agarose column from the soluble fraction of the cell extracts according to the protocol provided by Qiagen, Inc. The purified proteins were dialyzed against storage buffer (50 mM TrisCl pH8.0, 50 mM KCl, 5 mM MgCl2, 1 mM DTT and 50% glycerol) for overnight and stored at−20° C. until use.
(§3) PprA and PprB function in a two-component regulatory system. Like other two-component regulatory genes, both PprA and PprB contain conserved phosphorylation sites (histidine and aspartate, respectively). An in vitro phosphorylation assay was performed to investigate the relationship between the PprA and PprB. PprA and PprB were purified as described in Example 4. […]

Assay [3] has as its system PprA / PprB. The assay can be described thus: In vitro phosphorylation assay with [γ-32P] ATP. It counts as biochemical, Pseudomonas aeruginosa. Particulars: 5 min at room temperature, SDS-PAGE, X-ray film.
Excerpt: as §1, §2, §3

Take `NCC[C@H](O)C(=O)N[C@@H]1C[C@H](N)[C@@H](O[C@H]2O[C@H](CN)[C@@H](O)[C@H](O)[C@H]2O)[C@H](O)[C@H]1O[C@H]1O[C@H](CO)[C@@H](O)[C@H](N)[C@H]1O` [amikacine]: the “change of resistance/sensitivity of PAK1-3 to the antibiotic” value in the assay on P. aeruginosa PAK1-3 is listed as “increased resistance”.

Turning to `CC[C@H]1OC(=O)[C@H](C)[C@@H](O[C@H]2C[C@@](C)(OC)[C@@H](O)[C@H](C)O2)[C@H](C)[C@@H](O[C@@H]2O[C@H](C)C[C@H](N(C)C)[C@H]2O)[C@](C)(O)C[C@@H](C)C(=O)[C@H](C)[C@@H](O)[C@]1(C)O` [erythromycin], the “change of resistance/sensitivity of PAK1-3 to the antibiotic” value in the assay on P. aeruginosa PAK1-3 is “increased resistance”.

Regarding `[H]/N=C(/N)N[C@H]1[C@H](O)[C@@H](O)[C@H](O[C@@H]2O[C@@H](C)[C@](O)(C=O)[C@H]2O[C@@H]2O[C@@H](CO)[C@H](O)[C@@H](O)[C@@H]2NC)[C@@H](N/C(N)=N\[H])[C@@H]1O` [streptomycin], the “change of resistance/sensitivity of PAK1-3 to the antibiotic” value with P. aeruginosa PAK1-3 is reported as “increased resistance”.

For the molecule gentamicin, the “change of resistance/sensitivity of PAK1-3 to the antibiotic” value with P. aeruginosa PAK1-3 is recorded as “increased resistance”.

Regarding `CC1(C)S[C@@H]2[C@H](NC(=O)C(C(=O)O)c3ccccc3)C(=O)N2[C@H]1C(=O)O` (some centres unmarked) [carbenicillin], the “change of resistance/sensitivity of PAK1-3 to the antibiotic” value in the assay with P. aeruginosa PAK1-3 was “not significantly changed”. Also, the “sensitivity of most of the clinical isolates” value in assay [1] was “resistant”.

With `O=C(O)c1cn(C2CC2)c2cc(N3CCNCC3)c(F)cc2c1=O` [ciprofloxacin], the “change of resistance/sensitivity of PAK1-3 to the antibiotic” value with P. aeruginosa PAK1-3 is “increased resistance”.

Consider `NC[C@H]1O[C@H](O[C@H]2[C@H](O)[C@@H](O[C@H]3O[C@H](CO)[C@@H](O)[C@H](N)[C@H]3O)[C@H](N)C[C@@H]2N)[C@H](N)C[C@@H]1O` [tobamycin], for which, in the assay with P. aeruginosa PAK1-3, the “change of resistance/sensitivity of PAK1-3 to the antibiotic” value is reported as “increased resistance”.

B1: PprB: putative response regulator (PA4296) encoded by pprB, SEQ ID NO:4; His-tagged, purified from E. coli (protein, listed as Pseudomonas aeruginosa)
chain: MDKPASRHFSVLIIDDEPQVTSELRELLENSGYRCVTSTHRESAIASFQADPNIGLVICDLYLGQDNGIRLIESLKEVAGNGRFFESIILTGHDGRQEVIEAMRVGAADYYQKPVAPQELLHGLERLESRLHERVRSQLSLSHVNQRLEYLAESLNSIYRDIHKIKYEVHGNSQPSALRSEDSQPSAPPAPVAESQVSPSNPLFGKLSPRQQAVARLVSKGLTNYQIAYELGITENTVKLYVSQVLRLMHMHNRTQLALALSPAAMQQGSGAVVH
modifications: His tag
notes: His-tagged, purified from E. coli
With B1, the “effect of overexpression on the MIC change of PAK1-3” value with PAK1-3 cells was “much more dramatic”. Besides, the “phosphorylation of PprB when PprA was mixed with PprB” value in the assay with PprA / PprB [2] was “highly phosphorylated”.

B2: PprA: putative histidine kinase homolog (PA4293) encoded by pprA, SEQ ID NO:3; His-tagged, purified from E. coli (protein, listed as Pseudomonas aeruginosa)
chain: MFEFSRSSSAEAERPEPFSQEGPALWSASLRSWDLCFEMDEQDRVIRVGGRQAYRLQCAHGLGEQPRPFAEYLERRAPGAPTLAGLRRGERLDLTLRSDAAAPLTCRFQPMQPLDGLGRSLLLGMDISDLNWQSDSQQHQLQSLSLGKLILSRLRHVSHGHLAEAVQEILESLSGAFQMQAIALLLGDGKGFCTVFASHVRPGSDSLLRPPLQLADDDLREGAGARLLRRGEGASTLLRQIGEDALYLVPATMRGGRLGALLVRPMSLEQLAQGPAPQDWQYLAELLANQVADRCELHEQHDSSRKLGLLQEMIGGGWWRYWAEQELFELAPALHDSLGLTGEYRRVPLEHLQGLLQPADADELGLRLRASLRSGQALAQDLCLRQPDSRGERRWLRIEGRPLGRGSALGLSGVLLDISEGRRQEERAQAAHARLRSLIDSAPVVIYVQRVEQGHLVPEFYSESASNLLGLDLQGQSWQALAERVHPDDLEAFFARGRELLREGRVKTRYRLADGQGNWHWLYDEAKLLRDAQGLPSEAVGLWLDVTEQHLAAQRIAESEERYRVLVEDSPALICRYTADLVLTYVNRTFADSLATSPERLVGRRLDEWLAAEDASALRARLLGSPREGASEVPELRFNLPGQRFLWLVWAERPLFDARGELCEVQAVGRDNTPVRRAQQQLAQGAKMASLGEMVSGLAHEVKQPLHVLRMTLFNMRQRMNSVGLDGDYLGEKLERMDAQVLRVDRLVSHLGVFSRKSALEALPFDPYAAFEGALGLLGEGLRQHAIEVECPAPTQRMVVRGQADQLEQVIINLLANARDALLGNPGLASRRVRLEQVACREPGWVELHVHDNGGGIEPLLLERIFEPFFTTKAEGKGTGLGLSVSHDLVRNMGGSLTAANQGEGALFVVRLPLAAPAEAGG
modifications: His tag
notes: as for B1
In the case of B2, the “phosphorylation of the purified protein alone” value in the assay with PprA / PprB [3] is “phosphorylated”.

These data come from US7271005B2, “Modulation of bacterial membrane permeability” (priority 2002, dated 2007).
